Test results as given in patent US20250019387A1 (Frontier Medicines Corporation, priority 0001, published 2025).
pIC50: −log10 of the molar value.

biological target: KRAS G12C and cRAF (Ras-binding domain) interaction (Homo sapiens (Human), UniProt P01116, C118S/C51S/C80L/G12C); experiment: Inhibition of KRAS G12C and cRAF binding (AlphaScreen); details: GMPPNP-loaded KRAS G12C, 19-20 hours incubation with compound; read-out: IC50 (Inhibition of KRAS G12C and cRAF Binding)
Protocol: Compounds were diluted in 100% DMSO and each compound concentration was spotted at 200 nl/well onto low volume, white 384 well plates. […] Plates were incubated for 19-20 hours. A mixture of RBD and the AlphaScreen streptavidin donor and glutathione acceptor beads diluted in 25 mM Hepes, pH 7.4, 150 mM NaCl, 5 mM MgCl2, 0.01% TritonX-100 and 2% DMSO was then added at 10 ul/well and incubated for 60-90 minutes before the samples were read for emission at 570 nm after excitation of the donor beads at 680 nm. All incubations were performed at room temperature. […] IC50s were determined using nonlinear regression fit of [inhibitor]vs. response (4 parameters). […]

Chain of KRAS G12C and cRAF (Ras-binding domain) interaction (P01116 other isoform, or with tags, fused parts or gaps G12C/C51S/C80L/C118S): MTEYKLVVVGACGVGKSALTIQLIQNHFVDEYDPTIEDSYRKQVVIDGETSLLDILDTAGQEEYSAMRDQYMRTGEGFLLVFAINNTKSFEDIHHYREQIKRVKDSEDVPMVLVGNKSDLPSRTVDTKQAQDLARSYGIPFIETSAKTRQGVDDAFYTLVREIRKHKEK

pIC50 | SMILES
7.00 to 8.00 | CN(CC1CN(C#N)C1)c1nc(OCC23CCCN2CCC3)nc2c(F)c(-c3cccc4cccc(Cl)c34)ncc12 [Example 28, 3-(((7-(8-chloronaphthalen-1-yl)-8-fluoro-2-((tetrahydro-1H-pyrrolizin-7a(5H)-yl)methoxy)pyrido[4,3-d]pyrimidin-4-yl)(methyl)amino)methyl)azetidine-1-carbonitrile]
< 6.30 | CN(c1nc(OC[C@@]23CCCN2C[C@H](F)C3)nc2c(F)c(-c3cccc4cccc(Cl)c34)ncc12)[C@@H]1CN(C(=O)/C=C/c2nc(C(C)(C)O)no2)C[C@H]1F [Example 217, (E)-1-((3R,4R)-3-((7-(8-chloronaphthalen-1-yl)-8-fluoro-2-(((2R,7aS)-2-fluorotetrahydro-1H-pyrrolizin-7a(5H)-yl)methoxy)pyrido[4,3-d]pyrimidin-4-yl)(methyl)amino)-4-fluoropyrrolidin-1-yl)-3-(3-(2-hydroxypropan-2-yl)-1,2,4-oxadiazol-5-yl)prop-2-en-1-one]
7.00 to 8.00 | CN(c1nc(OC[C@@]23CCCN2C[C@H](F)C3)nc2c(F)c(-c3cccc4cccc(Cl)c34)ncc12)[C@@H]1CCN(C(=O)C#CC2COCCN2)C1 (stereo partly drawn) [Example 238, 1-((R)-3-((7-(8-chloronaphthalen-1-yl)-8-fluoro-2-(((2R,7aS)-2-fluorohexahydro-1H-pyrrolizin-7a-yl)methoxy)pyrido[4,3-d]pyrimidin-4-yl)(methyl)amino)pyrrolidin-1-yl)-3-(morpholin-3-yl)prop-2-yn-1-one]
7.00 to 8.00 | C=CC(=O)N1CC(CN(C)c2nc(OC[C@@]34CCCN3C[C@H](F)C4)nc3c(F)c(-c4cccc5ccc(F)c(CC)c45)ncc23)C1 [Example 254, 1-(3-(((7-(8-ethyl-7-fluoronaphthalen-1-yl)-8-fluoro-2-(((2R,7aS)-2-fluorohexahydro-1H-pyrrolizin-7a-yl)methoxy)pyrido[4,3-d]pyrimidin-4-yl)(methyl)amino)methyl)azetidin-1-yl)prop-2-en-1-one]
7.00 to 8.00 | CN(c1nc(OCC23CCCN2CCC3)nc2c1CCN(c1cccc3cccc(Cl)c13)C2)[C@@H]1CCN(C(=O)/C=C/c2nc(C3COC3)no2)C1 [Example 156, (R,E)-1-(3-((7-(8-chloronaphthalen-1-yl)-2-((hexahydro-1H-pyrrolizin-7a-yl)methoxy)-5,6,7,8-tetrahydropyrido[3,4-d]pyrimidin-4-yl)(methyl)amino)pyrrolidin-1-yl)-3-(3-(oxetan-3-yl)-1,2,4-oxadiazol-5-yl)prop-2-en-1-one]
< 6.30 | C=CC(=O)N1CC[C@@H](N(C)c2nc(OC[C@]34CCCN3C[C@@H](F)C4)nc3c(F)c(-c4cccc5ccc(F)c(Cl)c45)ncc23)C1 [Example 151, 1-((R)-3-((7-(8-chloro-7-fluoronaphthalen-1-yl)-8-fluoro-2-(((2S,7aR)-2-fluorohexahydro-1H-pyrrolizin-7a-yl)methoxy)pyrido[4,3-d]pyrimidin-4-yl)(methyl)amino)pyrrolidin-1-yl)prop-2-en-1-one]
7.00 to 8.00 | COC(=O)/C=C/C(=O)N1CCC(N(C)c2nc(OC[C@@H]3CCCN3C)nc3c2CCN(c2cccc4ccc(F)c(Cl)c24)C3)C1 (stereo partly drawn) [Example 2, methyl(E)-4-(3-((7-(8-chloro-7-fluoronaphthalen-1-yl)-2-(((S)-1-methylpyrrolidin-2-yl)methoxy)-5,6,7,8-tetrahydropyrido[3,4-d]pyrimidin-4-yl)(methyl)amino)pyrrolidin-1-yl)-4-oxobut-2-enoate]
7.00 to 8.00 | CN(CC1CN(C(=O)/C=C/c2ccncn2)C1)c1nc(OC[C@@]23CCCN2C[C@H](F)C3)nc2c(F)c(-c3cccc4cccc(Cl)c34)ncc12 [Example 63, (E)-1-(3-(((7-(8-chloronaphthalen-1-yl)-8-fluoro-2-(((2R,7aS)-2-fluorotetrahydro-1H-pyrrolizin-7a(5H)-yl)methoxy)pyrido[4,3-d]pyrimidin-4-yl)(methyl)amino)methyl)azetidin-1-yl)-3-(pyrimidin-4-yl)prop-2-en-1-one]
7.00 to 8.00 | CN(c1nc(OC[C@@]23CCCN2C[C@H](F)C3)nc2c(F)c(-c3cccc4ccc(F)c(Cl)c34)ncc12)[C@@H]1CCN(C(=O)/C=C/C2CCCN2)C1 (stereo partly drawn) [Example 102, (E)-1-((R)-3-((7-(8-chloro-7-fluoronaphthalen-1-yl)-8-fluoro-2-(((2R,7aS)-2-fluorotetrahydro-1H-pyrrolizin-7a(5H)-yl)methoxy)pyrido[4,3-d]pyrimidin-4-yl)(methyl)amino)pyrrolidin-1-yl)-3-(pyrrolidin-2-yl)prop-2-en-1-one]
6.30 to 7.00 | C=CC(=O)N1CC[C@@H](Nc2nc(OC[C@@]34CCCN3C[C@H](F)C4)nc3c(F)c(-c4cccc5cccc(Cl)c45)ncc23)[C@H]1C [Example 190, 1-((2R,3R)-3-((7-(8-chloronaphthalen-1-yl)-8-fluoro-2-(((2R,7aS)-2-fluorotetrahydro-1H-pyrrolizin-7a(5H)-yl)methoxy)pyrido[4,3-d]pyrimidin-4-yl)amino)-2-methylpyrrolidin-1-yl)prop-2-en-1-one]
7.00 to 8.00 | C=CC(=O)N1CC[C@@H](N(C)c2nc(OC[C@]34CCCN3C[C@H](F)C4)nc3c(F)c(-c4cccc5ccc(F)c(Cl)c45)ncc23)C1 [Example 81, 1-((R)-3-((7-(8-chloro-7-fluoronaphthalen-1-yl)-8-fluoro-2-(((2R,7aR)-2-fluorotetrahydro-1H-pyrrolizin-7a(5H)-yl)methoxy)pyrido[4,3-d]pyrimidin-4-yl)(methyl)amino)pyrrolidin-1-yl)prop-2-en-1-one]

SMILES | pIC50
CN(CC1CN(C(=O)/C=C/[C@H]2CCN2C)C1)c1nc(OC[C@@]23CCCN2C[C@H](F)C3)nc2c(F)c(-c3cccc4ccc(F)c(Cl)c34)ncc12 [Example 221, (E)-1-(3-(((7-(8-chloro-7-fluoronaphthalen-1-yl)-8-fluoro-2-(((2R,7aS)-2-fluorotetrahydro-1H-pyrrolizin-7a(5H)-yl)methoxy)pyrido[4,3-d]pyrimidin-4-yl)(methyl)amino)methyl)azetidin-1-yl)-3-((R)-1-methylazetidin-2-yl)prop-2-en-1-one] | > 8.00
C=CC(=O)N1C[C@H](N(C)c2nc(OC[C@@]34CCCN3C[C@H](F)C4)nc3c(F)c(-c4cccc5cccc(Cl)c45)ncc23)C(F)(F)C1 [Example 239, 1-((S)-4-((7-(8-chloronaphthalen-1-yl)-8-fluoro-2-(((2R,7aS)-2-fluorotetrahydro-1H-pyrrolizin-7a(5H)-yl)methoxy)pyrido[4,3-d]pyrimidin-4-yl)(methyl)amino)-3,3-difluoropyrrolidin-1-yl)prop-2-en-1-one] | 7.00 to 8.00

same assay, conditions: additional exemplary compounds; KRAS G12C and cRAF binding; read-out: RAF1 RBD IC50

pIC50 | SMILES
< 6.30 | O=C(/C=C/CN1CCOCC1)N1CC2(C1)CN(c1nc(OC[C@@]34CCCN3C[C@H](F)C4)nc3c(F)c(-c4cccc5cccc(Cl)c45)ncc13)C2
6.30 to 7.00 | C=CC(=O)N1CC[C@@H](N(C)c2nc(OCC34CCCN3CCC4)nc3c2CCN(c2cccc4ccc(F)c(Cl)c24)C3)C1
< 6.30 | Cc1noc(/C=C/C(=O)N2CCN(c3nc(OC[C@@]45CCCN4C[C@H](F)C5)nc4c3CCN(c3cccc5cccc(Cl)c35)C4)CC2)n1
< 6.30 | C=CC(=O)N1CC[C@@H](N(C)c2nc(OC[C@@]34CCCN3C[C@@H](F)C4)nc3c2CCN(c2cccc4cccc(Cl)c24)C3)C1
< 6.30 | Cc1nccc(/C=C/C(=O)N2CCC[C@H](Nc3nc(OC[C@@]45CCCN4C[C@H](F)C5)nc4c(F)c(-c5cccc6cccc(Cl)c56)ncc34)C2)n1
7.00 to 8.00 | C=CC(=O)N1CC(CN(C)c2nc(OC[C@@]34CCCN3C[C@H](F)C4)nc3c(F)c(-c4cccc5cccc(Cl)c45)ncc23)C1
7.00 to 8.00 | CN(c1nc(OCC23CCCN2CCC3)nc2c1CCN(c1cccc3cccc(Cl)c13)C2)[C@@H]1CCN(C(=O)/C=C/CN2CC(F)C2)C1
< 6.30 | Cc1nccc(/C=C/C(=O)N2CCC(N(C)c3nc(OC[C@@]45CCCN4C[C@H](F)C5)nc4c(F)c(-c5cccc6cccc(Cl)c56)ncc34)CC2)n1
< 6.30 | CN1CCC1/C=C/C(=O)N1CCCN(c2nc(OC[C@@]34CCCN3C[C@H](F)C4)nc3c(F)c(-c4cccc5cccc(Cl)c45)ncc23)CC1 (some centres unmarked)
< 6.30 | C=CC(=O)N(C)CC1CCN1c1nc(OC[C@@]23CCCN2C[C@H](F)C3)nc2c(F)c(-c3cccc4cccc(Cl)c34)ncc12 (some centres unmarked)
< 6.30 | CN(CCS(=O)(=O)/C=C/CN1CCC(F)(F)C1)c1nc(OCC23CCCN2CCC3)nc2c1CCN(c1cccc3cccc(Cl)c13)C2
< 6.30 | C=CC(=O)CCN(C)c1nc(OC[C@@H]2CCCN2C)nc2c1CCN(c1cccc3ccccc13)C2
< 6.30 | CN(c1nc(OCC23CCCN2CCC3)nc2c(F)c(-c3cccc4cccc(Cl)c34)ncc12)[C@@H]1CCN(C(=O)/C=C/c2cnccn2)C1
< 6.30 | Cc1cc(/C=C/C(=O)N2CCC[C@@H](N(C)c3nc(OC[C@@]45CCCN4C[C@H](F)C5)nc4c(F)c(-c5cccc6cccc(Cl)c56)ncc34)C2)nc(C)n1
6.30 to 7.00 | C=CS(=O)(=O)CCN(C)c1nc(OC[C@@H]2CCCN2C)nc2c(F)c(-c3cccc4cccc(Cl)c34)ncc12
< 6.30 | Cc1nccc(/C=C/C(=O)N2CCN(c3nc(OC[C@@]45CCCN4C[C@H](F)C5)nc4c(F)c(-c5cccc6cccc(Cl)c56)ncc34)C3CC32)n1 (some centres unmarked)
< 6.30 | C=CC(=O)N1CC[C@@H](N(C)c2nc(OC[C@@]34CCCN3C[C@H](F)C4)nc3c(F)c(-c4cccc5c(C)c(F)ccc45)ncc23)C1

SMILES | pIC50
O=C(/C=C/CN1[C@@H]2CC[C@H]1COC2)N1CCN(c2nc(OC[C@@]34CCCN3C[C@H](F)C4)nc3c(F)c(-c4cccc5cccc(Cl)c45)ncc23)CC12CC2 | < 6.30
C#Cc1c(F)ccc2cccc(-c3ncc4c(N(C)[C@H]5CCN(C(=O)C=C)C5)nc(OC[C@@]56CCCN5C[C@H](F)C6)nc4c3F)c12 | 6.30 to 7.00
